According to patent US7662803B2, “Method for treating warm-blooded vertebrates with halide-free glucosamine-acidic drug complexes” (Gluconova, LLC, priority 2004, dated 2010):

What was measured:
Assay type in all cases: in vivo
[1] = test system: male Swiss Webster mice; assay: Elevated Plus Maze (test for antianxiety activity); conditions: 0.50 mg/kg intraperitoneal, 30 min before test, 5 minute on maze, 6 mice
Experimental: The apparatus employed in this example consisted of two darkened enclose arms and two open arms, with a light beam focused on the open arms. The maze is elevated to a height of 55 cm. Mice have a desire to explore the apparatus, but the open, bristly lit arms present an aversive environment so that their preference is to remain in the enclosed arms.
Thirty minutes later, each animal was individually placed on the elevated maze for 5 minute and the time spent on the open (aversive) arms was recorded.

[2] = test system: male Swiss Webster mice; assay: Metrazol-induced convulsions (test for antiepileptic activity); conditions: 15 mg/kg subcutaneous, 15 min before metrazol 120 mg/kg s.c., 10 mice
Experimental: Three groups of 10 male Swiss Webster mice (25-30 g) received a subcutaneous injection of one of the following treatments: vehicle alone; phenytoin (15 mg/kg in 1% Tween® 80); halide-free glucosamine-phenytoin complex, ˜1:1 molar ratio, (15 mg/kg in water). Fifteen minutes later, each animal was injected subcutaneously with a convulsant dose of metrazol (120 mg/kg) and observed for 60 minutes for an entire-body convulsion.

[3] = test system: male Swiss-Webster mice; assay: abdominal irritant test (test for analgesia), acetylcholine bromide i.p.; conditions: 30 min before acetylcholine bromide 5.5 mg/kg i.p., observed 10 min, 10 mice per group
Experimental: The test that was employed is an abdominal irritant test that was carried out in accordance with the procedure set forth by Collier et al., Brit. J. Pharmacol., 32:295-310 (1968).
Each group of 10 male Swiss-Webster mice weighing 25-30 g received an oral injection of (a) distilled water or 1% Tween® 80; or (b) a previously established analgesic dose of either ibuprofen (30 mg/kg), ketoprofen (200 mg/kg), naproxen (30 mg/kg), piroxicam (3 mg/kg) or aspirin (150 mg/kg) or ([…]).
Thirty minutes after each injection, each mouse was injected i.p. ([…]) with an aqueous solution of acetylcholine bromide (5.5 mg/kg). The animals were then observed for 10 minutes for the presence or absence of a characteristic wave of contraction and elongation passing caudally along the abdominal wall, accompanied by a twisting of the trunk and followed by extension of the hind limbs. The percentage of analgesia was then calculated for each group based on the percentage of mice displaying no behavioral response.

[4] = 30 mg/kg oral (complex: mg/kg of the complex)

Compound: CN1C(=O)CN=C(c2ccccc2)c2cc(Cl)ccc21 [Diazepam, diazepam]
- Mean time (sec) ± s.e.m. in open arms [1]: 30.3 ± 12.7 s

Compound: O=C1NC(=O)C(c2ccccc2)(c2ccccc2)N1 [Phenytoin, phenytoin]
- No. of mice protected (no body seizures in 60 min.) [2]: 1/10

Compound: CC(=O)Oc1ccccc1C(=O)O [aspirin]
- analgesia (percentage of mice displaying no behavioral response) ([3]; 0.50 mg/kg oral as printed (complex: mg/kg of the complex)): 70%

Compound: CC(C)Cc1ccc(C(C)C(=O)O)cc1 (stereo not shown) [ibuprofen]
- analgesia (percentage of mice displaying no behavioral response) [3, 4]: 80%

Compound: CC(C(=O)O)c1cccc(C(=O)c2ccccc2)c1 (stereo not shown) [ketoprofen]
- analgesia (percentage of mice displaying no behavioral response) ([3]; 200 mg/kg oral (complex: mg/kg of the complex)): 56%

Compound: COc1ccc2cc([C@H](C)C(=O)O)ccc2c1 [naproxen]
- analgesia (percentage of mice displaying no behavioral response) [3, 4]: 70%

Compound: CN1C(C(=O)Nc2ccccn2)=C(O)c2ccccc2S1(=O)=O [piroxicam]
- analgesia (percentage of mice displaying no behavioral response) ([3]; 3 mg/kg oral (complex: mg/kg of the complex)): 70%
